Where a name gives a salt, the structure may show the parent alone.
Legend:
Format in all cases: biochemical
AKT1 = molecular target: T1, AKT1 (Homo sapiens, UniProt P31749); assay: AKT Kinase Assay (IMAP fluorescent polarisation) vs AKT1; settings: activated AKT1, FAM Crosstide substrate
T1 construct: purchased SignalChem
Experimental: (§1) Testing of the compounds was performed using an AKT Kinase Assay:
(§2) Activated AKT isoforms 1, 2 and 3 were assayed utilising a 5′ FAM Crosstide (Seq. GRPRTSSFAEG-OH). The extent of kinase phosphorylation was determined by fluorescent polarisation using IMAP progressive binding reagent, which introduces binding beads which allow the reagent to specifically bind to phosphate residues via covalent co-ordination complex bonds.
(§3) iMAP binding solution stops Crosstide/kinase interaction and specifically binds phosphorylated substrates. The degree of phosphorylation is determined by fluorescent polarisation (excitation 485 nm; emission 528 nm) or the reduction in speed of rotation of the excited substrate.
(§4) The following materials were used in the assay: • a) Activated AKT isoforms (SignalChem.) dissolved in Complete Reaction buffer at a pre-determined concentration selected so that the assay was carried out in the linear range. • b) AKT substrate peptide: FAM Crosstide (R7110) Molecular Devices, diluted in complete reaction buffer. • c) iMAP Progressive Screening Express Kit (R8127) Molecular Devices • d) Complete Reaction Buffer containing 0.1% BSA, 10 mM Tris-HCl, 10 mM MgCl2, 0.05% NaN3 and 0.01% phosphate free BSA, 1 mM DTT • e) Progressive Binding Solution containing 75% Buffer A, 25% Buffer B and low volume Binding Reagent which contains the binding entity for the assay • f) ATP diluted in complete reaction buffer • g) Black polystyrene 384 well assay plates (Nunc). • h) Biotek Synergy 4 Hybrid Plate reader.
(§5) 5 μl of test compound was dissolved in DMSO (Sigma Aldrich) and serially diluted in complete reaction buffer to give a fourteen point half log dose response and plated into 384 well black plates. The compound was incubated at room temperature with activated AKT isoform (5 μl) at the pre-determined concentration, for 45 minutes.
(§6) 2.5 μl of ATP solution mixed with 2.5 μl of AKT substrate peptide (FAM Crosstide (R7110) Molecular Devices) were dispensed into each well and the plate centrifuged at 1000 rpm for 20 seconds to ensure homogenous mixing of reagents. The reaction mix was incubated in the dark for one hour at room temperature.
(§7) The kinase reaction was stopped by the addition of Progressive Binding Solution and the mixture allowed to equilibrate for one hour in the dark, at room temperature.
(§8) The fluorescent polarisation generated in each well was determined using a […] Synergy 4 Hybrid plate reader. In brief, each reaction solution was excited at 485 nm with the emission measured at 528 nm in both the parallel and perpendicular pathway.
(§9) The polarisation value generated in each well was calculated by Gen5 software (Biotek) and the % inhibition of kinase activity compared to vehicle control was calculated via GraphPad Prism. IC50 values for each compound were calculated by non-linear regression analysis using Prism software.
(§10) All plates were internally controlled by two methods. Firstly, by calculating the signal:noise ratio; based on kinase polarisation without inhibitor and polarisation generated by complete reaction buffer in the absence of activated kinase. Secondly by determining IC50 values generated by known inhibitors of the AKT isoforms.

AKT2 = molecular target: T2, AKT2 (Homo sapiens, UniProt P31751); assay: AKT Kinase Assay (IMAP fluorescent polarisation) vs AKT2; settings: activated AKT2, FAM Crosstide substrate
T2 construct: purchased SignalChem
Experimental: as §1, §2, §3, §4, §5, §6, §7, §8, §9, §10

AKT3 = molecular target: T3, AKT3 (Homo sapiens, UniProt Q9Y243); assay: AKT Kinase Assay (IMAP fluorescent polarisation) vs AKT3; settings: activated AKT3, FAM Crosstide substrate
T3 construct: purchased SignalChem
Experimental: as §1, §2, §3, §4, §5, §6, §7, §8, §9, §10

T3 sequence (Q9Y243 whole entry): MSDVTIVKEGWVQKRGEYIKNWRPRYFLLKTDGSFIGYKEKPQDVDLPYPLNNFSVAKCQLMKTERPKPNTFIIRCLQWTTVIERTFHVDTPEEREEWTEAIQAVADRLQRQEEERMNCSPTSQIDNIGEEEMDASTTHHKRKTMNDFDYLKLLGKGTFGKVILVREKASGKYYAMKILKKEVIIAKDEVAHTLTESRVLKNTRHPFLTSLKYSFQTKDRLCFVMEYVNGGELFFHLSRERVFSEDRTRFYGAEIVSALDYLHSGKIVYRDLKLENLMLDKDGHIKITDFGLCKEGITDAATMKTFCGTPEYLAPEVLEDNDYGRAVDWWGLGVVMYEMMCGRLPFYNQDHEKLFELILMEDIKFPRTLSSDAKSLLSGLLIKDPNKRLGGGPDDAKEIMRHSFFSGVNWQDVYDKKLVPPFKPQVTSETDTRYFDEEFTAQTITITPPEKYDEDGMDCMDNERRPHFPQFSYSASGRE
T2 sequence (P31751 whole entry): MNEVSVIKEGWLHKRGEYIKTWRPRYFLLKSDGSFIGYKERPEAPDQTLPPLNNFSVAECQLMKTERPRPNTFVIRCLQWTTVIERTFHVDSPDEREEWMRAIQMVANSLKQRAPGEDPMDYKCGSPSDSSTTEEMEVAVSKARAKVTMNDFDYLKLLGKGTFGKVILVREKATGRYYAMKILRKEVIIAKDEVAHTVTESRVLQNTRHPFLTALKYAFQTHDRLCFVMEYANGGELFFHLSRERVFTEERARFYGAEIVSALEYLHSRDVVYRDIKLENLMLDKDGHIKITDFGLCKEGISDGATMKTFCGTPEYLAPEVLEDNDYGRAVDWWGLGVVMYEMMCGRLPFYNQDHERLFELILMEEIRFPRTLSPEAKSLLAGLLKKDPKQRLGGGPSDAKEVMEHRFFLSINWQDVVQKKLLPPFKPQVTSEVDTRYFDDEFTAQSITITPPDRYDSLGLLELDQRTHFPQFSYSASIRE
T1 sequence (P31749 whole entry): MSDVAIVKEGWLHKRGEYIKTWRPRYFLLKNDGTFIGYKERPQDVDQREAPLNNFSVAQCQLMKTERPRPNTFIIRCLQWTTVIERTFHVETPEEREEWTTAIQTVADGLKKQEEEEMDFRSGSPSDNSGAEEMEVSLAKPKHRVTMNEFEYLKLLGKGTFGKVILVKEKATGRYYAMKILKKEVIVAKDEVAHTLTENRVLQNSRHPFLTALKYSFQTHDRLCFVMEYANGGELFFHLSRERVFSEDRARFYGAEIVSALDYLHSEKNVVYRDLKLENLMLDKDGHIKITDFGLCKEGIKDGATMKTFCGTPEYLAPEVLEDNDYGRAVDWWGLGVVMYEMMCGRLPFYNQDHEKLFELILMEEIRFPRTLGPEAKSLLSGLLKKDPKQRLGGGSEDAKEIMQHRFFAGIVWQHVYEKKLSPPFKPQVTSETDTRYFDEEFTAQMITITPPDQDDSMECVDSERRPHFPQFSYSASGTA

SMILES: Cn1ncc2c3oc(-c4ccccc4)c(-c4ccc(C5(N)CCC5)cc4)c(=O)c3ccc21 [Example 60, 3-[4-(1-Amino-cyclobutyl)-phenyl]-7-methyl-2-phenyl-7H-pyrano[2,3-e]indazol-4-one]
- IC50 (AKT1): ≤ 1000 nM
- IC50 (AKT2): ≤ 1000 nM
- IC50 (AKT3): 1000 to 10000 nM

SMILES: Cn1cc2c(ccc3c(=O)c(-c4ccc(C5(N)CCC5)cc4)c(-c4ccccc4)oc32)n1 [Example 61, 3-[4-(1-Amino-cyclobutyl)-phenyl]-8-methyl-2-phenyl-8H-pyrano[2,3-e]indazol-4-one]
- IC50 (AKT1): ≤ 1000 nM
- IC50 (AKT2): ≤ 1000 nM
- IC50 (AKT3): 1000 to 10000 nM

SMILES: Cn1cnc2c3oc(-c4ccccc4)c(-c4ccc(C5(N)CCC5)cc4)c(=O)c3cc(Cl)c21 [Example 62, 7-[4-(1-Amino-cyclobutyl)-phenyl]-4-chloro-3-methyl-8-phenyl-3H-chromeno[7,8-d]imidazol-6-one hydrochloride]
- IC50 (AKT1): ≤ 1000 nM
- IC50 (AKT2): ≤ 1000 nM
- IC50 (AKT3): ≤ 1000 nM

SMILES: NC1(c2ccc(-c3c(-c4ccccc4)oc4c(ccn5c(=O)[nH]nc45)c3=O)cc2)CCC1 [Example 63, 7-[4-(1-Amino-cyclobutyl)-phenyl]-8-phenyl-2H-9-oxa-1,2,3a-triaza-cyclopenta[a]naphthalene-3,6-dione hydrochloride]
- IC50 (AKT1): ≤ 1000 nM
- IC50 (AKT2): ≤ 1000 nM
- IC50 (AKT3): ≤ 1000 nM

SMILES: Cn1nc2c3oc(-c4ccccc4)c(-c4ccc(C5(N)CCC5)cc4)c(=O)c3ccn2c1=O [Example 64, 7-[4-(1-Amino-cyclobutyl)-phenyl]-2-methyl-8-phenyl-2H-9-oxa-1,2,3a-triaza-cyclopenta[a]naphthalene-3,6-dione hydrochloride]
- IC50 (AKT1): ≤ 1000 nM
- IC50 (AKT2): ≤ 1000 nM
- IC50 (AKT3): ≤ 1000 nM

SMILES: NC1(c2ccc(-c3c(-c4ccccc4)oc4ccccc4c3=S)cc2)CCC1 [Example 65, 3-[4-(1-Amino-cyclobutyl)-phenyl]-2-phenyl-chromene-4-thione hydrochloride]
- IC50 (AKT1): 1000 to 10000 nM
- IC50 (AKT2): 1000 to 10000 nM
- IC50 (AKT3): 1000 to 10000 nM

SMILES: CON=c1c(-c2ccc(C3(N)CCC3)cc2)c(-c2ccccc2)oc2ccccc12 [Example 66, 3-[4-(1-Amino-cyclobutyl)-phenyl]-2-phenyl-chromen-4-one O-methyl-oxime]
- IC50 (AKT1): ≤ 1000 nM
- IC50 (AKT2): 1000 to 10000 nM
- IC50 (AKT3): > 10000 nM

SMILES: NC1(c2ccc(-c3c(-c4ccccc4)oc4c(Br)cccc4c3=O)cc2)COC1 [Example 67, 3-[4-(3-Amino-oxetan-3-yl)-phenyl]-8-bromo-2-phenyl-chromen-4-one]
- IC50 (AKT1): ≤ 1000 nM
- IC50 (AKT2): > 10000 nM
- IC50 (AKT3): > 10000 nM

SMILES: NC1(c2ccc(-c3c(-c4ccccc4)oc4c(ccn5c(=O)[nH]nc45)c3=O)cc2)COC1 [Example 68, 7-[4-(3-Amino-oxetan-3-yl)-phenyl]-8-phenyl-2H-9-oxa-1,2,3a-triaza-cyclopenta[a]naphthalene-3,6-dione]
- IC50 (AKT1): ≤ 1000 nM
- IC50 (AKT2): 1000 to 10000 nM
- IC50 (AKT3): > 10000 nM

SMILES: NC1(c2ccc(-c3c(-c4ccccc4)oc4c(ccn5c(=O)[nH]nc45)c3=O)cn2)CCC1 [Example 69, 7-[6-(1-Amino-cyclobutyl)-pyridin-3-yl]-8-phenyl-2H-9-oxa-1,2,3a-triaza-cyclopenta[a]naphthalene-3,6-dione]
- IC50 (AKT1): ≤ 1000 nM
- IC50 (AKT2): 1000 to 10000 nM
- IC50 (AKT3): > 10000 nM

SMILES: CC(C)(C#N)c1ccc(-c2c(-c3ccccc3)oc3c(ccn4c(=O)[nH]nc34)c2=O)cc1 [Example 70, 2-[4-(3,6-Dioxo-8-phenyl-2,6-dihydro-3H-9-oxa-1,2,3a-triaza-cyclopenta[a]naphthalen-7-yl)-phenyl]-2-methyl-propionitrile]
- IC50 (AKT1): ≤ 1000 nM
- IC50 (AKT2): > 10000 nM
- IC50 (AKT3): > 10000 nM

SMILES: Cn1ncc2ccc3c(=O)c(-c4ccc(C5(N)CCC5)nc4)c(-c4ccccc4)oc3c21 [Example 71, 7-[6-(1-Amino-cyclobutyl)-pyridin-3-yl]-1-methyl-8-phenyl-1H-9-oxa-1,2-diaza-cyclopenta[a]naphthalen-6-one hydrochloride]
- IC50 (AKT1): ≤ 1000 nM
- IC50 (AKT2): > 10000 nM
- IC50 (AKT3): > 10000 nM

SMILES: NC1(c2ccc(-c3c(-c4ccccc4)oc4c(N5CCOCC5)cccc4c3=O)cc2)CCC1 [Example 72, 3-[4-(1-Amino-cyclobutyl)-phenyl]-8-morpholin-4-yl-2-phenyl-chromen-4-one hydrochloride]
- IC50 (AKT1): ≤ 1000 nM
- IC50 (AKT2): 1000 to 10000 nM
- IC50 (AKT3): > 10000 nM

SMILES: Cc1n[nH]cc1-c1cccc2c(=O)c(-c3ccc(C4(N)CCC4)cc3)c(-c3ccccc3)oc12 [Example 73, 3-[4-(1-Amino-cyclobutyl)-phenyl]-8-(3-methyl-1H-pyrazol-4-yl)-2-phenyl-chromen-4-one hydrochloride]
- IC50 (AKT1): ≤ 1000 nM
- IC50 (AKT2): ≤ 1000 nM
- IC50 (AKT3): 1000 to 10000 nM

SMILES: NC1(c2ccc(-c3c(-c4ccccc4)oc4c(-n5ccnc5)cccc4c3=O)cc2)CCC1 [Example 74, 3-[4-(1-Amino-cyclobutyl)-phenyl]-8-imidazol-1-yl-2-phenyl-chromen-4-one hydrochloride]
- IC50 (AKT1): ≤ 1000 nM
- IC50 (AKT2): ≤ 1000 nM
- IC50 (AKT3): 1000 to 10000 nM

SMILES: Cc1c(-c2cccc3c(=O)c(-c4ccc(C5(N)CCC5)cc4)c(-c4ccccc4)oc23)cnn1C [Example 75, 3-[4-(1-Amino-cyclobutyl)-phenyl]-8-(1,5-dimethyl-1H-pyrazol-4-yl)-2-phenyl-chromen-4-one hydrochloride]
- IC50 (AKT1): ≤ 1000 nM
- IC50 (AKT2): ≤ 1000 nM
- IC50 (AKT3): 1000 to 10000 nM

SMILES: NC1(c2ccc(-c3c(-c4ccccc4)oc4c(-c5c[nH]nc5C(F)(F)F)cccc4c3=O)cc2)CCC1 [Example 76, 3-[4-(1-Amino-cyclobutyl)-phenyl]-2-phenyl-8-(3-trifluoromethyl-1H-pyrazol-4-yl)-chromen-4-one]
- IC50 (AKT1): ≤ 1000 nM
- IC50 (AKT2): 1000 to 10000 nM
- IC50 (AKT3): 1000 to 10000 nM

SMILES: NC1(c2ccc(-c3c(-c4ccccc4)oc4c(N5CCNC(=O)C5)cccc4c3=O)cc2)CCC1 [Example 77, 4-{3-[4-(1-Amino-cyclobutyl)-phenyl]-4-oxo-2-phenyl-4H-chromen-8-yl}-piperazin-2-one]
- IC50 (AKT1): ≤ 1000 nM
- IC50 (AKT2): 1000 to 10000 nM
- IC50 (AKT3): 1000 to 10000 nM

SMILES: Cc1noc(C)c1-c1cccc2c(=O)c(-c3ccc(C4(N)CCC4)cc3)c(-c3ccccc3)oc12 [Example 78, 3-[4-(1-Amino-cyclobutyl)-phenyl]-8-(3,5-dimethyl-isoxazol-4-yl)-2-phenyl-chromen-4-one]
- IC50 (AKT1): 1000 to 10000 nM
- IC50 (AKT2): 1000 to 10000 nM
- IC50 (AKT3): 1000 to 10000 nM

SMILES: COc1ccc2c(=O)c(-c3ccc(C4(N)CCC4)cc3)c(-c3ccccc3)oc2c1-c1cn[nH]c1 [Example 79, 3-[4-(1-Amino-cyclobutyl)-phenyl]-7-methoxy-2-phenyl-8-(1H-pyrazol-4-yl)-chromen-4-one]
- IC50 (AKT1): ≤ 1000 nM
- IC50 (AKT2): ≤ 1000 nM
- IC50 (AKT3): ≤ 1000 nM

SMILES: NC1(c2ccc(-c3c(-c4ccccc4)oc4c(-c5cn[nH]c5)nccc4c3=O)cc2)CCC1 [Example 80, 3-[4-(1-Amino-cyclobutyl)-phenyl]-2-phenyl-8-(1H-pyrazol-4-yl)-pyrano[2,3-c]pyridin-4-one hydrochloride]
- IC50 (AKT1): ≤ 1000 nM
- IC50 (AKT2): ≤ 1000 nM
- IC50 (AKT3): ≤ 1000 nM

SMILES: CCn1ncc2ccc3c(=O)c(-c4ccc(C5(N)CCC5)cc4)c(-c4ccccc4)oc3c21 [Example 81, 7-[4-(1-Amino-cyclobutyl)-phenyl]-1-ethyl-8-phenyl-1H-9-oxa-1,2-diaza-cyclopenta[a]naphthalen-6-one hydrochloride]
- IC50 (AKT1): ≤ 1000 nM
- IC50 (AKT2): ≤ 1000 nM
- IC50 (AKT3): 1000 to 10000 nM

SMILES: CCn1cc2ccc3c(=O)c(-c4ccc(C5(N)CCC5)cc4)c(-c4ccccc4)oc3c2n1 [Example 82, 7-[4-(1-Amino-cyclobutyl)-phenyl]-2-ethyl-8-phenyl-2H-9-oxa-1,2-diaza-cyclopenta[a]naphthalen-6-one hydrochloride]
- IC50 (AKT1): ≤ 1000 nM
- IC50 (AKT2): ≤ 1000 nM
- IC50 (AKT3): > 10000 nM

SMILES: CC(C)n1ncc2ccc3c(=O)c(-c4ccc(C5(N)CCC5)cc4)c(-c4ccccc4)oc3c21 [Example 83, 7-[4-(1-Amino-cyclobutyl)-phenyl]-1-isopropyl-8-phenyl-1H-9-oxa-1,2-diaza-cyclopenta[a]naphthalen-6-one hydrochloride]
- IC50 (AKT1): ≤ 1000 nM
- IC50 (AKT2): ≤ 1000 nM
- IC50 (AKT3): 1000 to 10000 nM
